# Results as given in article PMC12809495, “Potential 14-3-3 binding sites in sirtuins reveal extended phosphosite-recognition modes” (Acta Crystallographica Section F: Structural Biology …, 2026).
# Like-named read-outs stand apart in the source and are kept apart here. Where a SMILES comes first, the peptide text is derived from it. [ ]: non-standard residue; d: D form. pS = N[C@@H](COP(=O)(O)O)C(=O)O
# Target: T1, 14-3-3σ-ΔC (Homo sapiens, UniProt P31947)
# T1 construct: His6; made in house; host or cells: Escherichia coli BL21 Rosetta (DE3)
# T1 sequence (P31947 1-231 limits assumed): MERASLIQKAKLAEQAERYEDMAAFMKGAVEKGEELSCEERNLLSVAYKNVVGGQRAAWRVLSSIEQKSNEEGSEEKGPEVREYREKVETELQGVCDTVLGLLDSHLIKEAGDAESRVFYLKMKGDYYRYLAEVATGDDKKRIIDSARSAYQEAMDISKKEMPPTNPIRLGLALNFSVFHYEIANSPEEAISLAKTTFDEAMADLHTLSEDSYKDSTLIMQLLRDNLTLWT
# Assay: Label-free microscale thermophoresis (MST) binding, 14-3-3σ
# Protocol: The binding of phosphorylated sirtuin peptides (Fig. 1 ▸) was analyzed using the change in the intrinsic fluorescence signal of the 14-3-3 proteins measured with label-free microscale thermophoresis using a Nanotemper Monolith NT.LabelFree or NT.115. A typical binding experiment using 0.6 µM 14-3-3 protein was performed in a modified MST buffer consisting of 25 mM MES pH 6.5, 5 mM MgCl2, 5 mM CaCl2. The measurements were performed at 25°C using a LED power of 10–40%. All measurements were performed at least in duplicate, and the results shown are representative measurements individually fitted using GraFit 7 (Erathicus Software, Horley, United Kingdom).
# Figure 1 Classification and analysis of sirtuin PSSM results for potential 14-3-3 phosphoserine binding sites. Peptides with a gray background were not analyzed experimentally. Score is the overall PSSM score for the phosphorylation site; rank is the order within the 17 proposed sirtuin binding sites. Conserved residues in the 14-3-3 motifs are marked in green. Residues with restricted (proline) or very flexible (glycine) protein backbone or with a very large side chain (tryptophan) are marked in red. Amino acids with the same or similar hydrophobicity/size are shown in magenta. Kd values from duplicate measurements are colored green for Kd < 100 µM. Fields marked in red indicate no binding or no successful experiment. TEXT PRINTED IN THE PICTURE: Sirt1 S26: Affinity estimates by MicroScale Thermophoresis [μM], 14-3-3 isoform sigma: none | Sirt1 S670: Affinity estimates by MicroScale Thermophoresis [μM], 14-3-3 isoform gamma: aggr.; Affinity estimates by MicroScale Thermophoresis [μM], 14-3-3 isoform epsilon: > 183; Affinity estimates by MicroScale Thermophoresis [μM], 14-3-3 isoform theta: 93; Affinity estimates by MicroScale Thermophoresis [μM], 14-3-3 isoform sigma: 5 | Sirt3 S103: Affinity estimates by MicroScale Thermophoresis [μM], 14-3-3 isoform gamma: aggr.; Affinity estimates by MicroScale Thermophoresis [μM], 14-3-3 isoform epsilon: > 267; Affinity estimates by MicroScale Thermophoresis [μM], 14-3-3 isoform theta: 52; Affinity estimates by MicroScale Thermophoresis [μM], 14-3-3 isoform sigma: 10 | Sirt3 S103wt: Affinity estimates by MicroScale Thermophoresis [μM], 14-3-3 isoform gamma: aggr.; Affinity estimates by MicroScale Thermophoresis [μM], 14-3-3 isoform theta: none; Affinity estimates by MicroScale Thermophoresis [μM], 14-3-3 isoform sigma: none | Sirt3 S105: Affinity estimates by MicroScale Thermophoresis [μM], 14-3-3 isoform gamma: aggr.; Affinity estimates by MicroScale Thermophoresis [μM], 14-3-3 isoform epsilon: > 215; Affinity estimates by MicroScale Thermophoresis [μM], 14-3-3 isoform theta: 60; Affinity estimates by MicroScale Thermophoresis [μM], 14-3-3 isoform sigma: none | Sirt5 S168: Affinity estimates by MicroScale Thermophoresis [μM], 14-3-3 isoform epsilon: aggr.; Affinity estimates by MicroScale Thermophoresis [μM], 14-3-3 isoform theta: aggr.; Affinity estimates by MicroScale Thermophoresis [μM], 14-3-3 isoform sigma: > 329 | Sirt6 T337: Affinity estimates by MicroScale Thermophoresis [μM], 14-3-3 isoform epsilon: > 420; Affinity estimates by MicroScale Thermophoresis [μM], 14-3-3 isoform sigma: 12 | Sirt6 S338: Affinity estimates by MicroScale Thermophoresis [μM], 14-3-3 isoform epsilon: 19; Affinity estimates by MicroScale Thermophoresis [μM], 14-3-3 isoform sigma: 24 | Sirt7 S136: Affinity estimates by MicroScale Thermophoresis [μM], 14-3-3 isoform epsilon: none; Affinity estimates by MicroScale Thermophoresis [μM], 14-3-3 isoform theta: 30; Affinity estimates by MicroScale Thermophoresis [μM], 14-3-3 isoform sigma: 49
# For nine of the sites, including sites from all sirtuin isoforms except Sirt4, endecameric phosphopeptides were chemically synthesized for in vitro analysis. […]
compound,measurement,setting,value
CC(C)C[C@H](NC(=O)[C@@H](N)C(C)C)C(=O)N[C@@H](CO)C(=O)N[C@@H](CO)C(=O)N[C@@H](CO)C(=O)N[C@@H](COP(=O)(O)O)C(=O)N[C@@H](CS)C(=O)NCC(=O)N[C@@H](CO)C(=O)N[C@@H](CC(N)=O)C(=O)N[C@@H](CO)C(=O)O [Sirt1^pS670] (H-VLSSS[pS]CGSNS-OH),Kd,"Fig. 1, label-free MST, 0.6 µM 14-3-3 protein, 25 mM MES pH 6.5, 5 mM MgCl2, 5 mM CaCl2, 25°C, Kd from duplicate measurements, read-out: Affinity estimates by MicroScale Thermophoresis, 14-3-3 isoform sigma (Kd)",5 µM
same,Kd,"Fig. 3a, average of two independent MST experiments, 25°C, MES pH 6.5, read-out: average Kd, MST titration of 14-3-3σ-ΔC",1.7 ± 1.3 µM
